PubChem BioAssay AID1259408 (Genetic Toxicology Data Bank (GENE-TOX), 2018)
Active and inactive are the calls of the source. How the calls were made is not given here.

Test system: GENE-TOX genotoxicity assays, various organisms and cells
Assay: GENE-TOX mutagenicity studies
Conditions: for call: Assay Type: In vivo carcinogenicity studies
[1] = Species/Cell Type: Drosophila melanogaster, Assay Type: Sex-linked recessive lethal gene mutation, Assay Code: SRLT, Evaluation Type: Evaluation A (Pre-1980)
[2] = Species/Cell Type: Nonhuman, Assay Type: Sister-chromatid exchange (SCE) in vitro, Assay Code: SC2+D, Dose Response: With dose response, Evaluation Type: Evaluation A (Pre-1980)
[3] = Species/Cell Type: Salmonella typhimurium (one or more of the five standard strains: TA98, TA100, TA1535, TA1537, and TA1538), Assay Type: Histidine reverse gene mutation, Ames assay, Assay Code: SAL+*, Activation: With metabolic activation, Evaluation Type: Evaluation A (Pre-1980)
[4] = Species/Cell Type: Nonhuman, Assay Code: CCG+L, Evaluation Type: Evaluation A (Pre-1980)
[5] = Species/Cell Type: Bacillus subtilis (H17 vs M45), Assay Type: Rec-assay, spot test, DNA effects (bacterial DNA repair), Assay Code: REW+, Evaluation Type: Evaluation A (Pre-1980)
[6] = Species/Cell Type: Neurospora crassa, Assay Type: Aneuploidy, chromosome aberrations, Assay Code: NEN-, Evaluation Type: Evaluation A (Pre-1980)
[7] = Species/Cell Type: Saccharomyces cerevisiae, Assay Type: Mitotic recombination or gene conversion, Assay Code: YEC+, Evaluation Type: Evaluation A (Pre-1980)

Cc1c2ccccc2cc2c1ccc1ccccc12
mutagenic call (Species/Cell Type: Chinese hamster lung (V79) cells, Assay Type: Forward gene mutation at the HPRT or ouabain locus, Assay Code: V79+*, Activation: With metabolic activation, Evaluation Type: Evaluation A (Pre-1980)): active; positive
mutagenic call [1]: no conclusion
mutagenic call (Species/Cell Type: Mouse prostate cells, Assay Type: Cell transformation, Assay Code: CTM+D, Dose Response: With dose response, Evaluation Type: Evaluation A (Pre-1980)): active; positive
call (Species/Cell Type: Nonhuman, Assay Code: CCG+, Evaluation Type: Evaluation A (Pre-1980)): active; positive
mutagenic call [2]: active; positive
mutagenic call [3]: active; positive
mutagenic call (Species/Cell Type: Syrian hamster embryo (SHE) cells, Assay Type: Cell transformation, clonal assay, Assay Code: CTC+, Evaluation Type: Evaluation A (Pre-1980)): active; positive

O[C@@H]1C=Cc2c(cc3ccc4cccc5ccc2c3c45)[C@H]1O
mutagenic call (Species/Cell Type: Chinese hamster lung (V79) cells, Assay Type: Forward gene mutation at the HPRT or ouabain locus, Assay Code: V79+, Evaluation Type: Evaluation A (Pre-1980)): active; positive
call [4]: active; positive

[Cl][Hg][Cl]
mutagenic call [5]: active; positive
mutagenic call (Species/Cell Type: Human lymphocytes, Assay Type: Sister-chromatid exchange (SCE) in vitro, Assay Code: SCL+D, Dose Response: With dose response, Evaluation Type: Evaluation B (Post-1980)): active; positive
mutagenic call (Species/Cell Type: Human, Assay Type: Sister-chromatid exchange (SCE) in vitro, Assay Code: SC1+D, Dose Response: With dose response, Evaluation Type: Evaluation B (Post-1980)): active; positive
mutagenic call [6]: inactive; negative
mutagenic call (Species/Cell Type: Nonhuman, Assay Type: Sister-chromatid exchange (SCE) in vitro, Assay Code: SC2+, Evaluation Type: Evaluation B (Post-1980)): active; positive
mutagenic call (Species/Cell Type: Nonhuman, Assay Type: Sister-chromatid exchange (SCE) in vitro, Assay Code: SC2-, Evaluation Type: Evaluation B (Post-1980)): inactive; negative
mutagenic call (Species/Cell Type: Syrian hamster embryo (SA7/SHE) cells, Assay Type: Cell transformation, viral enhanced, Assay Code: CT7+, Evaluation Type: Evaluation A (Pre-1980)): active; positive

Cc1cc2nc3ccc(N(C)C)cc3nc2cc1N
mutagenic call [1]: no conclusion
mutagenic call (Species/Cell Type: Escherichia coli polA (W3119 vs P3478), Assay Type: Rec-assay, DNA effects (bacterial DNA repair), Assay Code: RE1T, Evaluation Type: Evaluation A (Pre-1980)): no conclusion
mutagenic call [6]: inactive; negative
mutagenic call [3]: active; positive

[Cl][Cu]
mutagenic call (Species/Cell Type: Bacillus subtilis (H17 vs M45), Assay Type: Rec-assay, spot test, DNA effects (bacterial DNA repair), Assay Code: REW-, Evaluation Type: Evaluation A (Pre-1980)): inactive; negative

Nc1cccc(O)c1
mutagenic call (Species/Cell Type: Mammalian polychromatic erythrocytes, Assay Type: Micronucleus test, chromosome aberrations, Assay Code: MNTT, Evaluation Type: Evaluation A (Pre-1980)): no conclusion
mutagenic call [6]: inactive; negative

CCN(Cc1cccc(S(=O)(=O)O)c1)c1ccc(C(=C2C=CC(=[N+](CC)Cc3cccc(S(=O)(=O)[O-])c3)C=C2)c2ccccc2)cc1
mutagenic call (Species/Cell Type: Bacillus subtilis (H17 vs M45), Assay Type: Rec-assay, spot test, DNA effects (bacterial DNA repair), Assay Code: REWT, Evaluation Type: Evaluation A (Pre-1980)): no conclusion

C=COC(N)=O
mutagenic call (Species/Cell Type: Human lymphocytes, Assay Type: Sister-chromatid exchange (SCE) in vitro, Assay Code: SCL+, Evaluation Type: Evaluation B (Post-1980)): active; positive
mutagenic call (Species/Cell Type: Human, Assay Type: Sister-chromatid exchange (SCE) in vitro, Assay Code: SC1+, Evaluation Type: Evaluation B (Post-1980)): active; positive
mutagenic call (Species/Cell Type: Nonhuman, Assay Type: Sister-chromatid exchange (SCE) in vitro, Assay Code: SC2+D, Dose Response: With dose response, Evaluation Type: Evaluation B (Post-1980)): active; positive
mutagenic call (Species/Cell Type: Nonhuman, Assay Type: Sister-chromatid exchange (SCE) in vivo, Assay Code: SC3+D, Dose Response: With dose response, Evaluation Type: Evaluation B (Post-1980)): active; positive

S=C([S-])NCCNC(=S)[S-].[Zn+2]
mutagenic call (Species/Cell Type: Human diploid fibroblasts, Assay Type: Unscheduled DNA synthesis (UDS) in vitro, DNA effects, Assay Code: UDH-, Evaluation Type: Evaluation A (Pre-1980)): inactive; negative
mutagenic call [7]: active; positive
mutagenic call (Species/Cell Type: Saccharomyces cerevisiae, Assay Type: Mitotic recombination or gene conversion, Assay Code: YEH-, Evaluation Type: Evaluation A (Pre-1980)): inactive; negative

O=C1C=C(N2CC2)C(=O)C(N2CC2)=C1N1CC1
mutagenic call (Species/Cell Type: Drosophila melanogaster, Assay Type: Sex-linked recessive lethal gene mutation, Assay Code: SRL+, Evaluation Type: Evaluation A (Pre-1980)): active; positive
mutagenic call (Species/Cell Type: Drosophila melanogaster, Sex: Male, Assay Type: Heritable translocation test, chromosome aberrations, Assay Code: DHT+, Evaluation Type: Evaluation A (Pre-1980)): active; positive
mutagenic call (Species/Cell Type: Glycine max (soybean), Assay Type: Gene mutation, Assay Code: GLM+, Evaluation Type: Evaluation A (Pre-1980)): active; positive
mutagenic call (Species/Cell Type: Hordeum vulgare (barley), Assay Type: Chromosome aberrations, Assay Code: HOC+D, Dose Response: With dose response, Evaluation Type: Evaluation A (Pre-1980)): active; positive
mutagenic call (Species/Cell Type: Human lymphocytes or leukocytes, Assay Type: Chromosome aberrations in vitro, Assay Code: CY7T, Evaluation Type: Evaluation A (Pre-1980)): no conclusion
mutagenic call (Species/Cell Type: Human lymphocytes, Assay Type: Sister-chromatid exchange (SCE) in vitro, Assay Code: SCL+D, Dose Response: With dose response, Evaluation Type: Evaluation A (Pre-1980)): active; positive
mutagenic call (Species/Cell Type: Human, Assay Type: Sister-chromatid exchange (SCE) in vitro, Assay Code: SC1+D, Dose Response: With dose response, Evaluation Type: Evaluation A (Pre-1980)): active; positive
mutagenic call (Species/Cell Type: Mammalian germ cells, Sex: Male, Assay Type: Chromosome aberrations in vivo, Assay Code: CY9T, Evaluation Type: Evaluation A (Pre-1980)): no conclusion
mutagenic call (Species/Cell Type: Mammalian oocytes or early embryo, Assay Type: Chromosome aberrations in vivo, Assay Code: CYO+, Evaluation Type: Evaluation A (Pre-1980)): active; positive
mutagenic call (Species/Cell Type: Mammalian polychromatic erythrocytes, Assay Type: Micronucleus test, chromosome aberrations, Assay Code: MNT+, Evaluation Type: Evaluation A (Pre-1980)): active; positive
mutagenic call (Species/Cell Type: Neurospora crassa, Assay Type: Forward gene mutation, Assay Code: NEF+, Evaluation Type: Evaluation A (Pre-1980)): active; positive
call [4]: active; positive
mutagenic call [2]: active; positive
mutagenic call (Species/Cell Type: Nonhuman, Assay Type: Sister-chromatid exchange (SCE) in vivo, Assay Code: SC3+D, Dose Response: With dose response, Evaluation Type: Evaluation A (Pre-1980)): active; positive
mutagenic call (Species/Cell Type: Rodents, Sex: Female, Assay Type: Dominant lethal test, Assay Code: DLTF+D, Dose Response: With dose response, Evaluation Type: Evaluation A (Pre-1980)): active; positive
mutagenic call (Species/Cell Type: Rodents, Sex: Male, Assay Type: Dominant lethal test, Assay Code: DLT+D, Dose Response: With dose response, Evaluation Type: Evaluation A (Pre-1980)): active; positive
mutagenic call [7]: active; positive
mutagenic call (Species/Cell Type: Saccharomyces cerevisiae, Assay Type: Reverse gene mutation, Assay Code: YER+, Evaluation Type: Evaluation A (Pre-1980)): active; positive
mutagenic call (Species/Cell Type: Salmonella typhimurium, Escherichia coli, Serratia marcesens, Assay Type: Forward and reverse gene mutation, host-mediated assay, Assay Code: HMN+, Evaluation Type: Evaluation A (Pre-1980)): active; positive

COc1ccc(-c2oc3c(OC)c(OC)c(OC)cc3c(=O)c2OC)cc1
mutagenic call [5]: active; positive
